Laboratory results as given in patent publication US20120258937A1, “Targeting Estrogen Receptors in the Treatment of Lymphangioleiomyomatosis” (Fox Chase Cancer Center, priority 2011, published 2012).

Legend:
[1] = system: ELT3 xenograft tumors; assay: Analysis of ELT3 xenograft tumors (H&E, immunohistochemistry, TUNEL, immunoblot, real-time RT-PCR); type: in vivo, mice; conditions: for MMP2 protein level vs placebo-treated: immunoblotting
Protocol: (§1) Animal studies. All animal work was performed in accordance with protocols approved by the Institutional Animal Care and Use Committee at the Brigham and Women's Hospital. Female ovariectomized and male CB17-SCID mice, six to eight weeks of age, were purchased from Taconic (Hudson, N.Y.). One week prior to ELT3 cell injection, 17-beta estradiol or placebo pellets (2.5 mg, 90-day release, Innovative Research America, Sarasota, Fla.) were implanted. For xenograft tumor establishment, 2×10^6 ELT3 cells were bilaterally injected into the rear flanks of the mice. Lung metastases were scored from five-micron H & E stained sections of each lobe by observers blinded to the experimental conditions. Fulvestrant (1 mg/day, intramuscular injection) or Doxycycline (0.7 mg/day, 60-day release, Innovative Research America) treatments were initiated one day post-cell inoculation.
(§2) Immunoblotting and antibodies. Cells were rinsed once in ice-cold PBS and lysed in m-PER buffer (50 mM HEPES, pH 7.5, 50 mM NaCl, 5 mM EDTA, 50 mM NaF, 10 mM Na4P2O7, and 1% Triton, Pierce). Lysates were resolved by SDS-PAGE electrophoresis and transferred onto Immobilon P membranes (Millipore, Bedford, Mass.). The following antibodies were used for Western blot analysis: anti-MMP2 (Chemicon), anti-phospho-p42/44 MAPK (T202/Y204), anti-p42/44MAPK, anti-Collagen Type IV (Abnova), anti-Ki67 (BioGenex, San Ramon, Calif.), anti-beta-actin (Sigma), and anti-ERα (Santa Cruz, Calif.). Western blots were developed using horseradish peroxidase-conjugated secondary antibodies and ECL chemiluminescence (Amersham Biosciences, Piscataway, N.J.).
(§3) Immunohistochemistry. Sections were deparaffinized, incubated overnight with primary antibodies at 4° C. in a humidified chamber and then rinsed and incubated with biotinylated secondary antibodies for 30 minutes at room temperature. Slides were developed using the Broad Spectrum AEC Histostain®-Plus or Histostain®-Plus kit (Invitrogen), and they were counterstained with Gill's Hematoxylin. TUNEL assay reagent was from Roche. Gelatin zymography. Conditioned media from cultured cells were collected, filtered through […] Nalgene filter, and subjected for gel electrophoresis on 10% SDS-PAGE containing 0.1% gelatin (Invitrogen). MMP2 activity was detected according to the manufacture's protocol. Real-time RT-PCR. Total RNA from cultured cells and xenograft tumors was isolated using RNeasy® Mini Kit (Qiagen, Valencia, Calif.). Gene expression was quantified using One-Step qRT-PCR Kits (Invitrogen) in the Applied Biosystems Real-Time PCR System and normalized to beta-actin control amplification.

[2] = system: ELT3 cells; assay: ELT3 xenograft tumor growth, lung metastasis and survival in SCID mice; type: in vivo; conditions: for effect on estradiol-promoted lung metastases: ELT3 xenograft model of LAM; for mean tumor area: post-inoculation week eight
Protocol: as §1, with “Fulvestrant (1 mg/day, intramuscular injection) or Doxycycline (0.7 mg/day, 60-day release, Innovative Research America) treatments were initiated one day post-cell inoculation.” left out
Statistical analyses. Statistical analyses were performed using Student's t-test when comparing two groups. Results are presented as means+SD (Standard Deviation) of experiments performed in triplicate. Differences were considered significant at p<0.05.

[3] = system: MMP2; assay: MMP2 activity in ELT3 conditioned media by gelatin zymography; type: cell-based, rat; conditions: ELT3 cells
Protocol: (§4) Cell culture and reagents. ELT-3 cells (Eker rat uterine leiomyoma-derived smooth muscle cells) were cultured in IIA complete medium supplemented with 15% fetal bovine serum (FBS). Prior to the in vitro experiments, cells were maintained in media supplemented with 10% charcoal-stripped FBS for three days, and then serum-starved for 24 hours in serum-free and phenol red-free medium. 17 beta-estradiol (E2, 10 nM, Sigma, St. Louis, Mo.), PD98059 (50 μM, Cell Signaling Technology, Danvers, Mass.), or ICI 182780 (1 μM, Biomol) were added to the cells as indicated.
as §3

[4] = system: MMP2; assay: MMP2 accumulation in cultured ELT3 cells by immunoblotting; type: cell-based, rat
Protocol: as §4, §2

[5] = estradiol plus drug, immunoblot
[6] = real-time RT-PCR, female mice, size-matched tumors
[7] = ELT3 xenograft, given on this schedule (one day prior to cell inoculation)

SMILES: C[C@]12CC[C@@H]3c4ccc(O)cc4C[C@@H](CCCCCCCCC[S+]([O-])CCCC(F)(F)C(F)(F)F)[C@H]3[C@@H]1CC[C@@H]2O (stereo partly drawn) [Fulvestrant]
- cell death (TUNEL staining) in xenograft tumors ([1]; drug in estradiol-treated mice): did not affect
- cell proliferation (Ki-67 immunoreactivity) in xenograft tumors ([1]; drug in estradiol-treated mice): did not affect
- ECM organization in xenograft tumors ([1]; drug plus estradiol-treated animals): well-maintained ECM network
- ECM organization in xenograft tumors ([1]; drug plus placebo-treated animals): dense bundles of collagen fibers
- ERα in tumors [1, 5]: lower levels
- phospho-p42/44 MAPK in tumors [1, 5]: lower levels
- effect on estradiol-promoted lung metastases ([2]; drug plus estradiol): completely blocked
- effect on survival of estradiol-treated mice bearing xenograft tumors ([2]; drug plus estradiol, Kaplan-Meier): significantly increased
- mean tumor area ([2]; drug plus estradiol): 259±83 mm^2
- effect on estradiol-stimulated MMP2 activity ([3]; 4 hours pretreatment, then estradiol stimulation): almost completely blocked

SMILES: C[C@]12CC[C@@H]3c4ccc(O)cc4CC[C@H]3[C@@H]1CC[C@@H]2O [estradiol, 17 beta-estradiol]
- type IV collagen in xenograft tumors ([1]; estradiol alone vs placebo, female and male mice): marked reduction
- ECM organization in xenograft tumors ([1]; estradiol alone vs placebo, female and male mice, H&E): disrupted ECM network
- MMP2 protein level vs placebo-treated ([1]; female mice): 1.8 fold
- MMP2 protein level vs placebo-treated ([1]; male mice): 2.5 fold
- MMP2 transcript level vs placebo-treated [1, 6]: 5 fold
- MMP9 transcript level vs placebo-treated [1, 6]: 28 fold
- progesterone receptor (PgR) level vs placebo-treated ([1]; real-time RT-PCR, xenograft tumors): 4 fold
- increase of MMP2 accumulation ([4]; within two to four hours of estradiol treatment): five to seven-fold
- average number of lung metastases ([2]; E2 alone): 10 metastases/mouse
- range of number of lung metastases ([2]; E2 alone): 4-37 metastases/mouse
- mice with pulmonary metastases ([2]; E2 alone, five of nine mice): 56%
- increase in pulmonary metastasis of ELT3 cells ([2]; E2 alone, mice bearing xenograft tumors): three- to five-fold
- overall survival vs placebo-treated mice ([2]; estradiol alone, mice bearing xenograft tumors): reduced overall survival
- mean tumor area ([2]; estrogen alone): 251±65 mm^2
- increase of MMP2 activity ([3]; estradiol stimulation for 24 hours): eight-fold
- duration of estradiol-stimulated MMP2 activity ([3]; up to 120 minutes stimulation): sustained throughout the 120 minutes stimulation
- increase of active MMP2 level ([3]; within five minutes of estradiol stimulation): three-fold

SMILES: CO[C@H]1C[C@@H]2CC[C@@H](C)[C@@](O)(O2)C(=O)C(=O)N2CCCC[C@H]2C(=O)O[C@H]([C@H](C)C[C@@H]2CC[C@@H](OCCO)[C@H](OC)C2)CC(=O)[C@H](C)/C=C(\C)[C@@H](O)[C@@H](OC)C(=O)[C@H](C)C[C@H](C)/C=C/C=C/C=C/1C [RAD001]
- lung metastasis [2, 7]: completely blocked
- subcutaneous tumor development [2, 7]: completely blocked

SMILES: C[C@H]1c2cccc(O)c2C(=O)C2=C(O)[C@]3(O)C(=O)C(C(N)=O)=C(O)[C@@H](N(C)C)[C@@H]3[C@@H](O)[C@@H]21 [Doxycycline]
- average number of lung metastases ([2]; drug plus estradiol): 9 metastases/mouse
- range of number of lung metastases ([2]; drug plus estradiol): 6-18 metastases/mouse
- effect on estradiol-promoted lung metastases ([2]; drug plus estradiol): does not inhibit
- mice with lung metastases ([2]; drug plus estradiol, four of five mice): 80%
- mean tumor area ([2]; drug plus estradiol): 333±142 mm^2
- mean tumor area ([2]; drug plus placebo): 193±80 mm^2

SMILES: COc1cccc(-c2cc(=O)c3ccccc3o2)c1N [PD98059]
- effect on estradiol's enhancement of MMP2 accumulation ([4]; 30 minutes preincubation, after two hours of estradiol treatment): strongly blocked
